Data taken from patent US9486438B2, “Combination dosage forms and therapies for supporting bone health” (Primus Pharmaceuticals Inc., priority 2008, dated 2016).

Legend:
ovariectomized rats [1] = assay: Genistein dose-ranging preclinical study: bone mineral density of the right femur by dual-energy X-ray absorptiometry; assay type: in vivo, Sprague-Dawley rats
Protocol: (§1) This study was carried out to evaluate the effects of different human dose equivalents of genistein (aglycone) alone, or in combination with supplemental calcium carbonate and vitamin D3, on bone density, markers, and histology in ovariectomized rats. Forty-eight three month old ovariectomized (OVX) female Sprague-Dawley rats were purchased from Charles River Laboratories. Animals were maintained in plastic cages under standard environmental conditions with water and standard rat chow available ad libitum at the Animal Facility of the Department of Clinical and Experimental Medicine and Pharmacology of the University of Messina, Messina, Italy. After 1 week of acclimation, animals were randomly assigned to 12 different treatment groups that lasted for 6 weeks as summarized in Table 1 below:
(§2) Genistein doses were converted into human equivalents by using the following formula: (human dose in mg/m^2)=(kin)×(dose in mg/kg) where human m^2 for a person of 60 kg (considered as a medium weight for our cohort of post-menopausal women) is 1.62 and km is the conversion factor (for a rat of 250 gr is 7.0) {Freireich, 1966 4611/id. Genistein was diluted in a 1:1 solution of 0.9% NaCl and DMSO and administered by intraperitoneal injection. Animals received 50% supplementation of their normal daily intake of calcium and vitamin D3 (50.4 IU/kg/day) by oral gavage, which equated to 366.52 mg/kg/day of calcium and 50.4 IU/kg/day of vitamin D3.
(§3) Bone mineral density of the right femur was measured using dual-energy X-ray absorptiometry. The coefficient of variation for femur BMD was 1.16%. Animals were maintained under controlled conditions for 6 weeks, at the end of the experiments were sacrificed under general anaesthesia (with chloral hydrate 400 mg/kg/ip) after blood collection by cardiac puncture. Blood was centrifuged and serum stored immediately at −20° C. for analysis. Serum was used to quantify markers of bone resorption [soluble receptor activator of nuclear factor kappaB ligand (sRANKL) and C-terminal telopeptide (CTX)] and formation [bone-specific alkaline phosphatase and osteoprotegerin (OPG)].

post-menopausal women = conditions: administered for one year to post-menopausal women; Morabito et al. 2002; cited from earlier work
[2] = tested on: ovariectomized (OVX) female Sprague-Dawley rats; assay: Genistein bone architecture study: femoral head histology; assay type: in vivo; conditions: human equivalent dose of 54 mg/day (4.76 mg/kg/day i.p.), photomicrographs, preliminary evidence, to approximately that of non-ovariectomized animal
Excerpt: Three month old ovariectomized (OVX) female Sprague-Dawley rats were purchased from Charles River Laboratories. Animals were maintained in plastic cages under standard environmental conditions with water and standard rat chow available ad libitum at the Animal Facility of the Department of Clinical and Experimental Medicine and Pharmacology of the University of Messina, Messina, Italy.
Dose Calculation—Genistein doses were converted into animal equivalents by using the following formula: (human dose in mg/m^2)=(km)×(dose in mg/kg) where human m^2 for a person of 60 kg (considered as a medium weight for our cohort of post-menopausal women) is 1.62 and km is the conversion factor (for a rat of 250 gr is 7.0) {Freireich, 1966 4611/id}. Therefore, animals given the human equivalent of 54 mg/day were administered 4.76 mg/kg/day. Genistein was diluted in a 1:1 solution of 0.9% NaCl and DMSO and administered by intraperitoneal injection in a volume of […].
Histology—Rat femora decalcified in 4% EDTA for approximately 1 week and then processed for routine paraffin embedding following standard procedures. Sections were cut at the femoral head just proximal to the coxofemoral joint and stained with hematoxylin and eosin.

ovariectomized rats [3] = assay: Genistein dose-ranging preclinical study: serum markers of bone resorption and formation; assay type: in vivo, Sprague-Dawley rats
Protocol: as §1, §2, §3

[4] = Ensrud et al., J Bone Miner Res. 2004; cited from earlier work
[5] = tested on: younger postmenopausal women; conditions: 10 000 U vitamin D3/wk added to calcium 1000 mg/d, postmenopausal women (age: 56 y); Cooper et al. 2003; cited from earlier work
[6] = vitamin D3 added to estrogen therapy; Tuppurainen et al. 1998; cited from earlier work
[7] = serum, OVX rats, genistein 0-1000 mg/day human dose equivalents i.p., 6 weeks, p<0.001, FIG. 1

Compound: O=c1c(-c2ccc(O)cc2)coc2cc(O)cc(O)c12 [genistein, 4′,5,7-trihydroxyisoflavone]
- BMD when supplemented with vitamin D3 and calcium (ovariectomized rats [1]; equivalent of 54 mg genistein per day, only group showing it): statistically significant preservation
- bone mineral density (ovariectomized rats [1]; femur, OVX rats, genistein i.p., 6 weeks, p<0.001, FIG. 2): increases
- BMD when supplemented with vitamin D3 or calcium (ovariectomized rats [1]; genistein 27, 200, 500 and 1,000 mg human equivalent doses, even worsened in some instances): no improvement
- BMD over 6 weeks in calcium and vitamin D3-replete rats (ovariectomized rats [1]; genistein at 54 mg/day and above (human dose equivalents)): significant increases
- bone mineral density (post-menopausal women): improve
- several biochemical markers of bone health (post-menopausal women): improve
- trabecular architecture (trabecular rod number and thickness) of femoral head [2]: restores trabecular architecture
- RANKL/OPG ratio (ovariectomized rats [3]; OVX rats, genistein i.p., 6 weeks, p<0.001, FIG. 3): decreased
- dose at which the genistein effect reached a plateau (ovariectomized rats [3]; bone markers, BMD and RANKL/OPG ratio, no further significant improvement beyond this dose by post-hoc testing): 54 mg human dose equivalent
- Bone specific alkaline phosphatase (marker of bone formation) (ovariectomized rats [3]; [7]): dose-dependently increased
- CTX (marker of bone resorption) (ovariectomized rats [3]; [7]): decreased
- osteoprotegerin (marker of bone formation) (ovariectomized rats [3]; [7]): dose-dependently increased
- sRANKL (marker of bone resorption) (ovariectomized rats [3]; [7]): decreased

Compound: NCCCC(O)(P(=O)(O)O)P(=O)(O)O [alendronate]
- reducing fractures beyond 5 years of treatment [4]: no benefit

Compound: C=C1CC[C@H](O)C/C1=C/C=C1\CCC[C@]2(C)[C@@H]([C@H](C)CCCC(C)C)CC[C@@H]12 [vitamin D3]
- bone mineral density beyond calcium supplementation alone [5]: did not confer benefits
- lumbar or femoral bone mineral density changes [6]: no statistically significant improvement
